Here are results for twelve molecules from patent publication US20250127755A1, “PHARMACOLOGICAL DEPLETION OF HEME FOR THE TREATMENT OF MYELODYSPLASTIC SYNDROME” (THE SCRIPPS RESEARCH INSTITUTE, priority 2021, published 2025).

Data set [1] deals with MDS-L cells. Briefly: MDS-L differentiation assay (GlyA positivity, 384-well FACS-based). Conditions: for Maximal MDS-LGlyA fold induction: human; for EC50: read-out: MDS-L GlyA induction EC50; for inducing differentiation to more terminal blood lineages (GlyA immunopositivity): 384-well FACS-based assay. The procedure:
MDS-L differentiation assay. Given a limited number of patient samples and the low yield from each biopsy, it is not tractable to conduct high-throughput screens with primary cells.
To establish a screening assay, we selected known differentiation inducers of acute myeloid leukemia cells including retinoic acid (ATRA), Brequinar, and phorbol 12-myristate 13-acetate (PMA).
MDS-L were cultured in RPMI (17-105-CV, Corning) without phenol red and supplemented with 2 mM glutamine and 10% FBS. Cells first expanded in IL-3 until 70% confluence then pre-conditioned for 14 days with IL-3 (200-03, PeproTech), GCSF (300-23, PeproTech), and EPO (287-TC, R&D Systems) to promote erythroid and myeloid differentiation. A density of 10000 cells per well were used in phenotypic assays. MDSL cells were spun and treatment media was replaced with media containing APC Anti-CD235a (GlyA) (551336. BD Biosciences) (1.25 μL per 50 μL test) and incubated for 1 hour at 4° C. Cells were washed then counter stained with SYTOX-Green 1 μM per 100 μL prior to flow cytometry, analysis. Dose response and pharmacological assays were analyzed using a ZE5 Cell Analyzer (BioRad) equipped with Everest software. Single, live, cells were analyzed for GlyA expression using FlowJo v10.7.2 software.

The test system of data set [2] is MDS-L cells. Briefly: CFU assays of MDS-L cells. Format: cell-based.
Data set [3] has as its system MDS-L cells. Briefly: Loss of CD71. Format: cell-based.
For data set [4], the system named is MDS-L cells. Briefly: Induction of apoptosis. The settings on record: below 20 μM. The format is cell-based.
Data set [5] has as its system MDS-L cells. Kind of data set: Heme levels of MDS-L cells. The format is cell-based. Conditions: over relevant time periods, FIG. 4B. The method, then:
FIG. 4A-FIG. 4C. Heme depletion induces terminal differentiation of MDS-L cells. A: Relative induction of GlyA positive MDS-L cells in response to treatment for 96 hours with the indicated concentrations of NMPP. B: Heme levels of MDS-L cells treated with the indicated compounds. C: Relative induction of GlyA positive cells after 96-hour treatment with artemisone and hemin.
An additional consequence of this mechanism is the alkylation of artemisinin to heme, resulting in its functional inactivation. Because we found no other reactive oxygen species (ROS)-inducers or alkylators as active hits from the screen, we reasoned that heme depletion is a way in which artemisinins promote differentiation of this cellular population.

For `C[C@H]1[C@H](OC(=O)CCC(=O)O)O[C@@H]2O[C@@]3(C)CC[C@H]4[C@H](C)CC[C@@H]1[C@@]24OO3` (stereo in doubt) [Artesunate], in data set [1], the “Maximal MDS-LGlyA fold induction” value is reported as 7.51 fold and the EC50 was 850 nM.
On to `C[C@@H]1CC[C@H]2[C@@H](C)C(=O)O[C@@H]3O[C@@]4(C)CC[C@@H]1[C@]32O4` [2-deoxy-artemisinin], for which, in data set [1], the “activity in differentiation assays” value was “inactive”.
As for `CC1=C(/C=C/C(C)=C/C=C/C(C)=C/C(=O)O)C(C)(C)CCC1` [ATRA, retinoic acid], the “cytotoxicity as readout by live dead cell gating” value in data set [1] (MDS-L cells, FIG. 2) is given as “minimal cytotoxicity”.
For `CCO[C@H]1O[C@@H]2O[C@@]3(C)CC[C@H]4[C@H](C)CC[C@@H]([C@H]1C)[C@@]24OO3` [Arteether], in data set [1], the “Maximal MDS-LGlyA fold induction” value was 3.82 fold and the EC50 came to 580 nM. For the same molecule, in data set [2], the “number of BFU-E, CFU-GM and CFU-GEMM type colonies” value was “decreasing”; the “terminal differentiation of MDS-L cells to CFU-Es” value is “efficaciously induced”. Also, the “loss of CD71” value in data set [3] is recorded as “efficaciously promoted”. For the same molecule, in data set [4], the induction in apoptosis result is “no significant induction”.
For `c1cc([C@H]2CC[C@]3(CC2)OOC2(O3)[C@@H]3C[C@H]4C[C@H](C[C@@H]2C4)C3)ccc1OCCN1CCOCC1` (stereo partly drawn) [Artefenomel (OZ-439), Artefenomel], in data set [1], the “Maximal MDS-LGlyA fold induction” value is 3.71 fold and the EC50 worked out at 5650 nM.
On the same counts, the results for `C[C@H]1[C@@H](OCc2ccc(C(=O)O)cc2)O[C@@H]2O[C@@]3(C)CC[C@H]4[C@H](C)CC[C@@H]1[C@@]24OO3` [Artelinic acid (artelinate), Artelinic acid] are 7.26 fold and 30 nM.
On to `C[C@H]1[C@H](N2CCS(=O)(=O)CC2)O[C@@H]2O[C@@]3(C)CC[C@H]4[C@H](C)CC[C@@H]1[C@@]24OO3` [Artemisone], for which the “potential to induce differentiation of MDS-L cells on addition of exogenous heme (hemin)” value in data set [1] (96-hour treatment with artemisone and hemin, FIG. 4C) is on record as “suppressed”. For the same molecule, in data set [1], the “Maximal MDS-LGlyA fold induction” value is recorded as 6.84 fold and the EC50 was 150 nM. In data set [2], the “number of BFU-E, CFU-GM and CFU-GEMM type colonies” value is reported as “decreasing”; the “terminal differentiation of MDS-L cells to CFU-Es” value is “efficaciously induced”. In data set [3], the “loss of CD71” value is on record as “efficaciously promoted”. Also, the induction in apoptosis entry in data set [4] is on record as “no significant induction”. For the same molecule, the “levels of labile heme in MDS-L cells” value in data set [5] is on record as “efficiently reduced”.
Regarding `CC(C)(N)CNC(=O)C[C@H]1CC[C@]2(CC1)OO[C@]1(O2)[C@@H]2C[C@H]3C[C@@H](C2)C[C@@H]1C3` [Arterolane (OZ-277), Arterolane], in data set [1], the “Maximal MDS-LGlyA fold induction” value is recorded as 7.02 fold and the EC50 was found to be 1740 nM.
Take `Cc1c(-c2ccc(-c3ccccc3F)cc2)nc2ccc(F)cc2c1C(=O)O` [Brequinar]: the “inducing differentiation to more terminal blood lineages (GlyA immunopositivity)” value in data set [1] (MDS-L cells) was “efficacious”.
Take `C[C@H]1[C@@H](O)O[C@@H]2O[C@@]3(C)CC[C@H]4[C@H](C)CC[C@@H]1[C@@]24OO3` [Dihydroarte misin, dihydroartemisinin]: in data set [1], the “Maximal MDS-LGlyA fold induction” value turned out to be 7.09 fold and the EC50 turned out to be 610 nM.
For `CCCCCCCCCCCCCC(=O)O[C@@H]1[C@@H](C)[C@@]2(O)[C@@H](C=C(CO)C[C@]3(O)C(=O)C(C)=C[C@@H]23)[C@@H]2C(C)(C)[C@]12OC(C)=O` [PMA, phorbol 12-myristate 13-acetate], in data set [1] (MDS-L cells), the “inducing differentiation to more terminal blood lineages (GlyA immunopositivity)” value was “efficacious”.
For the molecule N-methylprotoporphyrin [NMPP], the “GlyA positivity in MDS-L cells” value in data set [1] (treatment for 96 hours, FIG. 4A) is “increase”. The “levels of labile heme in MDS-L cells” value in data set [5] is listed as “efficiently reduced”.
